# Test results taken from patent US11541057B2, “Thienopyrimidinone NMDA receptor modulators and uses thereof” (Cadent Therapeutics, Inc., priority 2015, dated 2023).
# Target: T1, NMDA receptor GRIN1/GRIN2B (NR2B) expressed in HEK293 cells (Homo sapiens, UniProt Q13224)
# T1 construct: host or cells: HEK293
# Experiment: Reversal of Ro 25-6981-mediated suppression of the Ca2+ response (fluo-8 fluorescence, FDSS) in HEK293 cells expressing GRIN1 and GRIN2B
# Assay type: cell-based
# Settings: % reversal=100*(R−Rneg)/(Rpos−Rneg) of Ro 25-6981 suppression of co-agonist (glutamate/glycine) Ca2+ response, 10 min pre-incubation, compound concentration not given
# Experimental: HEK293 cells with constructs conferring stable expression of the GRIN1 gene and tetracycline-inducible expression of the GRIN2B gene (Chantest, Cleveland, Ohio) are grown to ˜75% confluence in tissue culture flasks at 37° C., 5% CO2. NR2B expression is induced by overnight incubation with 0.3-0.4 μg/ml tetracycline in the presence of 2.5 mM ARL-15896 at 37° C., followed by moving to 30° C. for 3-5 hours. Cells are next harvested using TripleExpress™ (Life Technologies, Carlsbad, Calif.) according to the manufacturer's instructions, first removing culture medium, rinsing with Dulbecco's phosphate buffered saline (Ca^2+ and Mg^2+-free), and then adding the TripleExpress™ reagent. Harvested cells are spun down, washed twice in Ca^2+- and Mg^2+-free Hank's Balanced Salt Solution with 20 mM HEPES and 10 mM glucose, pH 7.4 (HHnoCa solution), and counted with viability assessed using Trypan Blue. Cells are loaded with fluo-8 Ca^2+-sensitive dye in HHnoCa solution according to the manufacturer's directions (AAT Bioquest, Sunnyvale, Calif.), incubating at 37° C. for 20 minutes followed by 25 minutes at 22-25° C. After a wash in HHnoCa to remove extracellular dye, cells are resuspended in HHnoCa and plated at […] cells per well in a volume of 25 μl/well in 384 well black-wall, clear bottom plates (Hamamatsu, Middlesex, N.J.). Plates are then centrifuged to create a monolayer in the wells and stored in the dark until used.
# Prior to analysis, compound plates are prepared with each compound at 6× the final desired concentration. From stock solutions at 10 mM in 100% DMSO, compounds are spotted in the desired amounts using an ECHO liquid handler (Labcyte, Sunnyvale, Calif.) into wells of a 384-well plate and then diluted with 50 μl of HHnoCa containing 750 nM Ro 25-6981 and 120 μM 5,7-dichlorokynurenic acid (both purchased from Tocris Bioscience (Bristol, England) and maintained as 10 mM stock solutions in 100% DMSO). To insure complete compound dissolution, these plates are then placed in an orbital shaker for at least one hour. Also prepared prior to the assay is a co-agonist plate containing HHnoCa with 240 μM glutamate, 2.4 mM glycine, and 7.2 mM CaCl2, which is 2.4× the desired final concentration of each reagent. Both the compound plate and co-agonist plate are 384-well polypropylene plates from Thermo Fisher Scientific, Waltham, Mass.
# The assay is performed by first adding 10 μl solution from each well of the compound plate described above to the cell plate using a CyBiWell liquid handler (Analytik Jena AG, Jena, Germany), followed by 10 minutes pre-incubation in the dark. Cell plates are then loaded onto a Hamamatsu FDSS 6000 plate reader. After a 30-second baseline, 25 μl is added to each well from the co-agonist plate, and the fluorescence signal is recorded for another 2 minutes. FDSS software applies shading and autofluorescence correction, and resultant raw fluorescence measurements are exported in the form of a fluorescence ratio for each well to its own reading at time zero in the experiment. In each plate, negative control wells consist of wells where Ro 25-6981 and 5,7 dichlorokynurenic acid are present and co-agonist is applied in the absence of any added assay compound. Under these conditions, the Ca^2+ response to co-agonist is suppressed. Positive control wells also present in each plate contain 5,7 dichlorokynurenic acid but no Ro 25-6981, so that co-agonist addition results in a large Ca^2+ response. Compounds tested are evaluated on the basis of their ability to reverse the suppression of the Ca^2+ response mediated by Ro 25-6981, which is quantified as % reversal=100*(R−Rneg)/(Rpos−Rneg) where R is the fluorescence ratio for the test compound at the end of the experiment and Rneg and Rpos are the end ratios for the negative and positive controls, respectively. […]
# T1 sequence (Q13224 27-1484, other chains not shown): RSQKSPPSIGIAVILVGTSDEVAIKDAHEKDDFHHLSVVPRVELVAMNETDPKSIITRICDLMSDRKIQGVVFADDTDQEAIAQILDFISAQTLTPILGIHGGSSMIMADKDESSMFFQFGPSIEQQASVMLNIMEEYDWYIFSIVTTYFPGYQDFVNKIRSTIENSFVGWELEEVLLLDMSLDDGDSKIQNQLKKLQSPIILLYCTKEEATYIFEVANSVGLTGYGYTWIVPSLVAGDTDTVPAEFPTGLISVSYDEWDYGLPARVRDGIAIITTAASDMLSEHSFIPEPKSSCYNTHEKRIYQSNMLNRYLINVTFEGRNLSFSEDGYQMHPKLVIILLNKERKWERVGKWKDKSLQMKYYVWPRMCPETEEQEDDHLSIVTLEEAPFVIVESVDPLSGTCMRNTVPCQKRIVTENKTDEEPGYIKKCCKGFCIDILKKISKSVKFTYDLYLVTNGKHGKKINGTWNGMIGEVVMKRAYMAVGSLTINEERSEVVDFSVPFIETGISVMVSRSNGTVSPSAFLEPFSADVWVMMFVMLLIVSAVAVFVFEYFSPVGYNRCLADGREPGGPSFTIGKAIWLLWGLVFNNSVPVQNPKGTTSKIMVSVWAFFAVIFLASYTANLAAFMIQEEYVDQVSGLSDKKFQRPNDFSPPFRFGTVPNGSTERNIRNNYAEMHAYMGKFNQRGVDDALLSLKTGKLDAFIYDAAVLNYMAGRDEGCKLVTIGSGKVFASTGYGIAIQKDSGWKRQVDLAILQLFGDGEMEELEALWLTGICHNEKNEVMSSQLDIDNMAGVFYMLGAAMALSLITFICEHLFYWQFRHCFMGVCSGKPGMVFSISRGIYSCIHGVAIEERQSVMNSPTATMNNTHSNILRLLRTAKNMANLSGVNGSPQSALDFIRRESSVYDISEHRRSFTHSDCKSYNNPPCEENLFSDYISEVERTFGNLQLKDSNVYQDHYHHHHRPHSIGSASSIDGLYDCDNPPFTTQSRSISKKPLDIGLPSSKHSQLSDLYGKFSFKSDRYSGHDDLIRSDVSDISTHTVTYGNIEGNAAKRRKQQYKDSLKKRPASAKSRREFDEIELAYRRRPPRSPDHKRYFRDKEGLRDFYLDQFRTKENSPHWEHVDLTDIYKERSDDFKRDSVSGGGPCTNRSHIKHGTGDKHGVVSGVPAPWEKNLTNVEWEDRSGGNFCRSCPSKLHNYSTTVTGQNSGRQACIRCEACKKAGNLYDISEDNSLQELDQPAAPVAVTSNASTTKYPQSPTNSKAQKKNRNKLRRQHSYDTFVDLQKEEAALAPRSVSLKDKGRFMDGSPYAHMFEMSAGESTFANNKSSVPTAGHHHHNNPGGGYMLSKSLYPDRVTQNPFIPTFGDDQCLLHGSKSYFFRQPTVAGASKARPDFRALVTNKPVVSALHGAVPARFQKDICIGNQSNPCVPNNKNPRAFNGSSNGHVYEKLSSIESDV
row,Response Recovered (%),Structure (SMILES)
1,0,"O=C(Cn1cnc2scc(-c3ccc(Cl)cc3)c2c1=O)N1CCC(O)CC1 [Example 1, 5-(4-chlorophenyl)-3-(2-(4-hydroxypiperidin-1-yl)-2-oxoethyl)thieno[2,3-d]pyrimidin-4(3H)-one]"
2,25,"O=C(Cn1cnc2scc(-c3ccc(Cl)cc3)c2c1=O)N1CCC(F)CC1 [Example 2, 5-(4-chlorophenyl)-3-[2-(4-fluoropiperidin-1-yl)-2-oxoethyl]-3H,4H-thieno[2,3-d]pyrimidin-4-one]"
3,3,"CN1CCN(C(=O)Cn2cnc3scc(-c4ccc(Cl)cc4)c3c2=O)CC1 [Example 3, 5-(4-chlorophenyl)-3-[2-(4-methylpiperazin-1-yl)-2-oxoethyl]-3H,4H-thieno└2,3-d┘pyrimidin-4-one]"
4,3,"O=C(Cn1cnc2scc(-c3ccc(Cl)cc3)c2c1=O)N1CCOCC1 [Example 4, 5-(4-chlorophenyl)-3-[2-(morpholin-4-yl)-2-oxoethyl]-3H,4H-thieno└2,3-d┘pyrimidin-4-one]"
5,3,"O=C(Cn1cnc2scc(-c3ccc(Cl)cc3)c2c1=O)N1CCC(O)C1 (stereo not shown) [Example 6, 5-(4-chlorophenyl)-3-[2-(3-hydroxypyrrolidin-1-yl)-2-oxoethyl]-3H,4H-thieno[2,3-d]pyrimidin-4-one]"
6,3,"O=C(Cn1cnc2scc(-c3ccc(Cl)cc3)c2c1=O)N1CCCCC1 [Example 8, 5-(4-chlorophenyl)-3-[2-oxo-2-(piperidin-1-yl)ethyl]-3H,4H-thieno[2,3-d]pyrimidin-4-one]"
7,2,"C[C@H]1CCCN1C(=O)Cn1cnc2scc(-c3ccc(Cl)cc3)c2c1=O [Example 10, 5-(4-chlorophenyl)-3-{2-[(2S)-2-methylpyrrolidin-1-yl]-2-oxoethyl}-3H,4H-thieno[2,3-d]pyrimidin-4-one]"
8,8,"O=C(Cn1cnc2scc(-c3ccc(Cl)cc3)c2c1=O)N1CCCC1C(F)(F)F (stereo not shown) [Example 11, 5-(4-chlorophenyl)-3-{2-oxo-2-[2-(trifluoromethyl)pyrrolidin-1-yl]ethyl}-3H,4H-thieno[2,3-d]pyrimidin-4-one]"
9,2,"O=C(Cn1cnc2scc(-c3ccc(Cl)cc3)c2c1=O)N1CCC(F)(F)CC1 [Example 14, 5-(4-chlorophenyl)-3-[2-(4,4-difluoropiperidin-1-yl)-2-oxoethyl]-3H,4H-thieno└2,3-d┘pyrimidin-4-one]"
10,−1,"O=C(Cn1cnc2scc(-c3ccc(Cl)cc3)c2c1=O)N1CCC(O)(c2ccccc2)CC1 [Example 15, 5-(4-chlorophenyl)-3-[2-(4-hydroxy-4-phenylpiperidin-1-yl)-2-oxoethyl]-3H,4H-thieno[2,3-d]pyrimidin-4-one]"
11,21,"O=C(Cn1cnc2scc(-c3ccc(Cl)cc3)c2c1=O)N1CCC(F)C1 (stereo not shown) [Example 16, 5-(4-chlorophenyl)-3-[2-(3-fluoropyrrolidin-1-yl)-2-oxoethyl]-3H,4H-thieno[2,3-d]pyrimidin-4-one]"
12,11,"O=C(Cn1cnc2scc(-c3ccc(C(F)(F)F)cc3)c2c1=O)N1CCCC1 [Example 17, 3-[2-oxo-2-(pyrrolidin-1-yl)ethyl]-5-[4-(trifluoromethyl)phenyl]-3H,4H-thieno[2,3-d]pyrimidin-4-one]"
13,19,"O=C(Cn1cnc2scc(-c3ccc(Cl)c(F)c3)c2c1=O)N1CCCC1 [Example 21, 5-(4-chloro-3-fluorophenyl)-3-(2-oxo-2-(pyrrolidin-1-yl)ethyl)thieno[2,3-d]pyrimidin-4(3H)-one]"
14,4,"O=C(Cn1cnc2scc(-c3ccc(F)cc3)c2c1=O)N1CCCCC1 [Example 24, 5-(4-fluorophenyl)-3-[2-oxo-2-(piperidin-1-yl)ethyl]-3H,4H-thieno[2,3-d]pyrimidin-4-one]"
15,41,"O=C(Cn1cnc2scc(-c3ccc(F)c(Cl)c3)c2c1=O)N1CCCC1 [Example 30, 5-(3-chloro-4-fluorophenyl)-3-[2-oxo-2-(pyrrolidin-1-yl)ethyl]-3H,4H-thieno└2,3-d┘pyrimidin-4-one]"
16,2,"N#Cc1ccc(-c2csc3ncn(CC(=O)N4CCCC4)c(=O)c23)cc1 [Example 32, 4-{4-oxo-3-[2-oxo-2-(pyrrolidin-1-yl)ethyl]-3H,4H-thieno[2,3-d]pyrimidin-5-yl}benzonitrile]"

# Second part, the molecule before the results:
row,Structure (SMILES),Response Recovered (%)
1,"O=C(Cn1cnc2scc(-c3ccc(Cl)cc3)c2c1=O)NC1CC1 [Example 5, 2-[5-(4-chlorophenyl)-4-oxo-3H,4H-thieno[2,3-d]pyrimidin-3-yl]-N-cyclopropylacetamide]",2
2,"CN1CCC(NC(=O)Cn2cnc3scc(-c4ccc(Cl)cc4)c3c2=O)C1 (stereo not shown) [Example 7, 2-[5-(4-chlorophenyl)-4-oxo-3H,4H-thieno[2,3-d]pyrimidin-3-yl]-N-(1-methylpyrrolidin-3-yl)acetamide]",3
3,"O=C(Cn1cnc2scc(-c3ccc(Cl)cc3)c2c1=O)NC1CCC1 [Example 9, 2-[5-(4-chlorophenyl)-4-oxo-3H,4H-thieno[2,3-d]pyrimidin-3-yl]-N-cyclobutylacetamide]",3
4,"CC1CCCC(C)N1C(=O)Cn1cnc2scc(-c3ccc(Cl)cc3)c2c1=O (stereo not shown) [Example 12, 5-(4-chlorophenyl)-3-[2-(2,6-dimethylpiperidin-1-yl)-2-oxoethyl]-3H,4H-thieno[2,3-d]pyrimidin-4-one]",−1
5,"CCN(CC)C(=O)Cn1cnc2scc(-c3ccc(Cl)cc3)c2c1=O [Example 13, 2-[5-(4-chlorophenyl)-4-oxo-3H,4H-thieno[2,3-d]pyrimidin-3-yl]-N,N-diethylacetamide]",5
6,"O=C(Cn1cnc2scc(-c3ccc(C(F)(F)F)cc3)c2c1=O)N1CCCC1C(F)(F)F (stereo not shown) [Example 18, 3-{2-oxo-2-[2-(trifluoromethyl)pyrrolidin-1-yl]ethyl}-5-[4-(trifluoromethyl)phenyl]-3H,4H-thieno[2,3-d]pyrimidin-4-one]",8
7,"O=C(Cn1cnc2scc(-c3ccc(Cl)c(C(F)(F)F)c3)c2c1=O)N1CCC(F)C1 (stereo not shown) [Example 19, 5-[4-chloro-3-(trifluoromethyl)phenyl]-3-[2-(3-fluoropyrrolidin-1-yl)-2-oxoethyl]-3H,4H-thieno[2,3-d]pyrimidin-4-one]",93
8,"O=C(Cn1cnc2scc(-c3ccc(Cl)c(C(F)(F)F)c3)c2c1=O)N1CCCC1 [Example 20, 5-(4-chloro-3-(trifluoromethyl)phenyl)-3-(2-oxo-2-(pyrrolidin-1-yl)ethyl)thieno[2,3-d]pyrimidin-4(3H)-one]",76
9,"O=C(Cn1cnc2scc(-c3ccc(C(F)(F)F)cc3)c2c1=O)N1CCCCC1 [Example 26, 3-[2-oxo-2-(piperidin-1-yl)ethyl]-5-[4-(trifluoromethyl)phenyl]-3H,4H-thieno[2,3-d]pyrimidin-4-one]",1
10,O=C(Cn1cnc2scc(-c3ccc(F)cc3)c2c1=O)N1CCCC1C(F)(F)F (stereo not shown) [Example 27],7
11,"Cc1ccc(-c2csc3ncn(CC(=O)N4CCCC4C(F)(F)F)c(=O)c23)cc1 (stereo not shown) [Example 28, 5-(4-methylphenyl)-3-{2-oxo-2-[2-(trifluoromethyl)pyrrolidin-1-yl]ethyl}-3H,4H-thieno[2,3-d]pyrimidin-4-one]",6
12,"O=C(Cn1cnc2scc(-c3cccc(F)c3)c2c1=O)N1CCCC1 [Example 31, 5-(3-fluorophenyl)-3-[2-oxo-2-(pyrrolidin-1-yl)ethyl]-3H,4H-thieno└2,3-d┘pyrimidin-4-one]",3
